Test results published in patent publication US20070077583A1, “Alpha enolase-directed diagnostics and therapeutics for cancer and chemotherapeutic drug resistance” (Aurelium BioPharma, Inc., priority 2005, published 2007).

Key:
A549 cells [1] = assay: Transwell filter cell invasion assay, A549; type: cell-based, human
Method: Transwell filter chamber assays were performed using a Chemicon QCM 96-well invasion kit according to the manufacturer's instructions (Chemicon International, Inc., Temecula, Calif.). Eno-1 and control siRNA transfected cells were harvested 2 days post-transfection, resuspended in media without serum and seeded in 96-well Matrigel-coated transwell filter plates at 50,000 cells per well. Medium with 10% serum was used as a chemo-attractant in a feeder tray. The inserts were placed into the feeder tray, and the cells were subsequently incubated for 16 hours at 37° C. in an incubator containing a 5% CO2 atmosphere. Cells that invaded through the filter to the bottom tray were quantitated using the CyQUANT-GR dye according to the manufacturer's instructions (Molecular Probes, Eugene, Oreg.).
These assays test the ability of a cell to move across membranes, which is a hallmark of metastatic potential. To confirm the results shown in FIGS. 27A and 27B, the highly metastatic cell line MDA-MB-435 was transfected with a vector expressing the α-enolase siRNA and subjected to the transwell filter assay (FIGS. 28 and 29, respectively).

MDA-435 cells [2] = assay: Annexin-V FITC staining, MDA-435; type: cell-based, human
Method: The effect of Eno-1 siRNA silencing on tumor cell growth was even more dramatic in the MDA-435 breast cancer cells, where the viability in cells that were transfected with Eno-1 siRNA dropped to only about 17% of the control level (FIG. 40). In these cells the levels of silencing of α-enolase were also quite high, reaching 14% of the α-enolase levels present in the control transfected cells 6 days post-transfection (FIG. 41).
Apoptotic cells were measured following incubation with siRNAs. This assay was performed to determine the number of cells that were now susceptible to chemotherapeutic drugs. Cells transfected with siRNA were seeded in Lab-Tek 16-well chamber slides (Electron Microscopy Sciences, Hatfield, Pa.) at 10^4 cells/well 48 hrs post-transfection. Apoptosis was determined 16 hours later by annexin-V staining using the Annexin-V FLUOS kit (Roche, Ltd., Basel, CH) following the manufacturer's instructions. Slides were observed under a fluorescence microscope and images were taken using an Olympus digital camera and the Q-Capture software (QImaging, Burnaby, BC, CA).

MDA-435 cells [3] = assay: cells; type: cell-based, human
Method: Similar tests utilizing α-enolase siRNA were performed on MDA-435 breast adenocarcinoma cells. Chemosensitivity to various drugs was determined for the MDA-435 cells as described above.

α-enolase = assay: Western blot of α-enolase protein expression after siRNA transfection; type: cell-based, human; conditions: for reduction of α-enolase expression: A549 cells; for decrease of levels of expression of α-enolase: MDA-MB-435 cells
Method: Western blot analysis utilizing anti-α-enolase antibodies was performed on MOLT4 cell extracts fractionated on SDS-PAGE (FIG. 3). Cells extract were prepared according to the protocol detailed in Example 1. […] Resolved proteins were electrophoretically transferred onto nitrocellulose membranes (Hybond, Amercham Pharmacia Biotech) for 1 hour. […] After blocking the membranes with 5% non-fat milk in 1×PBS overnight at 4° C., all antibody-binding reactions were performed in 5% non-fat milk in 1×PBS for 2 hours at room temperature for primary antibodies and for 1 hour for secondary antibodies coupled to HRP. The signal was detected by the Supersignal west Pico chemiluminescent substrate (Pierce, Rockford, Ill., USA). Two polyclonal antibodies against α-enolase were used: a goat antibody against human α-enolase (Santa Cruz Biotechology, Inc., Santa Cruz, Calif.); rabbit polyclonal antibody against human α-enolase (NNE) (MorphoSys AG, Munich, Del.). Membranes were subsequently blotted with anti-GAPDH (Novus Biologicals, Inc., Littleton, Colo.) or anti-prohibitin mouse monoclonal antibody (Lab Vision Corp., Fremont, Calif.) as controls for protein loading. To establish the importance of α-enolase to the expression of the drug-resistant phenotype in cell lines, α-enolase expression was silenced using RNAi. Briefly, the following siRNA duplexes targeting the human α-enolase mRNA were designed and purchased either from Ambion (Austin, Tex.) or Invitrogen (Carlsbad, Calif.). […] [NT] ID NO: 2) targeting the mRNA sequence corresponding to nucleotides […] from the start of the transcript (Ref Seq ID number: NM-001428). […] In another tube, […] of Oligofectamine reagent (Invitrogen, Carlsbad, Calif.) is mixed with […] of Opti-MEM. The two solutions are combined and mixed gently by inversion and incubated for 20 min. at RT. […] The next day the transfected cells were trypsinized and seeded in 6 or 96-well plates and further incubated for the indicated amount of time (assay dependent) before further analysis.

SW-480 cells = assay: cells; type: cell-based, human
Method: The colorectal adenocarcinoma cell line SW-480 was treated with α-enolase-directed siRNA using the procedures described above.

MCF-7 cells = assay: Clonogenic assay, MCF-7 cells; type: cell-based, human; conditions: adriamycin-resistant MCF-7 cells, without drug
Method: Utilizing a clonogenic assay generated additional information concerning cell viability after drug-resistant cells were exposed to siRNA and chemotherapeutics. […] Taxol or Vincristine was added at IC10 or IC50 concentrations determined from MTT experiments for MCF-7 cells. […] The cells were further incubated for an additional 7 days. At the end of the incubation, the cells were stained with addition of a 0.5% Methylene Blue solution in 50% ethanol for 15 min. at RT. The staining solution was then removed and plates were dried overnight. The plates were scanned and the stained colonies were solubilized in 0.1% SDS. The absorbance of the resulting solution was determined by spectrophotometry at 660 nm.

A549 cells [4] = assay: MTT cytotoxicity assay, A549 cells transfected with α-enolase siRNA; conditions: A549 cells
Method: Small interfering RNA transfected cells were seeded in triplicate into 96-well plates at 5×10^3 cells/well 48 hrs post-transfection. The cells were incubated for an additional 16-24 hrs before they were exposed to increasing concentrations of cytotoxic drugs. […] Appropriate dilutions were made in the respective media for each cell line. Following addition of drugs, incubation was continued for an additional 72 hrs. Twenty-five ml of MTT dye (5 mg/ml) were added into each well and the plate was further incubated at 37° C. for 4 hrs. The dye was solubilized with 10% Triton X-100, 0.01 N HCl and further incubated at 37° C. in the dark for 30 min. Cell viability was determined by measure of absorption at 570 nm in a Wallac multiwell plate reader (PerkinElmer, Inc., Boston, Mass.). The averages of triplicate wells were plotted using the Prism software (GraphPad Software, Inc., San Diego, Calif.).
To investigate if α-enolase is broadly involved in mediating drug resistance to microtubule targeting agents, non-small cell lung cancer cell lines A549 and H460, respectively, were transfected with α-enolase siRNA and enolase expression and viability were assessed.

HUVEC cells = assay: HUVEC capillary tube formation on Matrigel; type: cell-based
Method: Transfected cells were then subjected to an angiogenesis assay to determine the effect of α-enolase on capillary tube formation. Briefly, Matrigel-coated 24-well culture plates (BD Biosciences, Rockville, Md.) were thawed at 4° C. overnight. The Matrigel was allowed to solidify for 1 hr at 37° C. α-enolase-1-directed siRNA or control siRNA silenced HUVEC cells were subsequently seeded onto the Matrigel-coated wells at a density of 40,000 cells per well in the absence of endothelial cell growth factors. Taxol was added to selected wells at 2 nM final concentration. The cells were allowed to differentiate overnight at 37° C., and were photographed after 5-6 and 16 hours using Q-Capture software under an Olympus fluorescence microscope.

Substance: α-enolase siRNA: siRNA duplex targeting human α-enolase mRNA; sense 5′-GGCUGUUGAGCACAUCAAUtt-3′ (SEQ ID NO: 1), antisense SEQ ID NO: 2; Ambion (antisense AUUGAUGUGCUCAACAGCC; bought from Ambion, sense has tt overhang, further chemistry not given here)
- invasion across membranes (A549 cells [1]): reduced the invasion
- apoptosis by annexin-V FITC staining (MDA-435 cells [2]): increase in apoptosis
- cell viability, of the control level (MDA-435 cells [3]): about 17%
- reduction of α-enolase expression (α-enolase; six days post-transfection): 90%
- reduction of α-enolase expression (α-enolase; three days post-transfection): 77%
- α-enolase expression (α-enolase; Detroit fibroblast cells, three days of treatment): significant down-regulation
- α-enolase level relative to control transfected cells (α-enolase; MDA-435 cells, 6 days post-transfection): 14%
- decrease of levels of expression of α-enolase (α-enolase; six days): 92%
- decrease of levels of expression of α-enolase (α-enolase; three days): 67%
- decrease of α-enolase protein expression (α-enolase; variety of cell lines): 50-80%
- decrease in cell viability (SW-480 cells): 50%
- viability less than that of siRNA untreated cells (MCF-7 cells): 65%
- cell viability after siRNA alone (A549 cells [4]): decreased the viability
- capillary tube formation on Matrigel (HUVEC cells): inhibited from forming capillary tubes
